Key:
[1] = system: HBG mRNA; test: HBG induction in GATA2 knockdown BM cells; assay type: cell-based, human; conditions: 1 μM, 4 days, CS1 expansion media
Method: shRNA experiments were conducted using the RNAi consortium (TRC) TRC1.5 vector, also known as pLKO.1-puro (Sigma). Five vectors containing shRNA targeting GATA2 were screened in expanded BM cells and the two hairpins yielding the greatest knockdown of GATA2 mRNA were selected for further use: shG2-1, TRCN0000019264 and shG2-2, TRCN0000019265. […] Lentiviral supernatants were produced in the 293T cell line using shRNA vectors, viral packaging mix (Sigma, SHP001), and TransIT-293 transfection reagent (Mirus Bio, Madison, WI). BM cells were grown for 3 days in CS1 expansion media, and then transduced using lentiviral supernatant’s supplemented with 5 μg/mL of polybrene under room temperature centrifugation at 1200 x g for 75 minutes. Transduced cells were grown for two days to allow for expression of construct, followed by selection for two days in 1 μg/mL of puromycin. The GATA2 overexpression vector (oeG2) was constructed by removing the GFP cassette of the pLKO.1-puro-CMV-TurboGFP vector (Sigma, SHC003) at the 5' NheI and 3' PstI cloning sites and replacing it with the full-length GATA2 transcript sequence (Refseq NM_001145661) (GenScript, Piscataway, NJ). pLKO.1-puro-CMV-TurboGFP vector was used as a control (oeGFP). BM cells were grown for 3 days in CS1 expansion media, and then transduced using the RetroNectin-bound virus method according to manufacturer’s protocol. […]

[2] = system: gene expression in BM cells; test: Gene expression profiling (Affymetrix GeneChip) of erythroid progenitors; assay type: cell-based, human
Method: BM cells were cultured in CS1 expansion media for 7 days, and then shifted to CS1 differentiation media containing vehicle or 1 μM ACY-957 for 5 days. Total RNA was isolated from cells at day 5 of differentiation using RNeasy Micro Kit with on-column DNase digestion (Qiagen). This experiment was performed in triplicate using cells from three independent donors on separate days to obtain vehicle treated (n = 3) and ACY-957 treated (n = 3) samples for GeneChip analysis. GeneChip sample preparation, hybridization, and data acquisition was performed by the Covance Genomics Laboratory (Seattle, WA) using Affymetrix GeneChip PrimeView™ Human Gene Expression Array according to manufacturer’s protocol. […] For the analysis of HDAC1 or HDAC2 knockdown in erythroblasts, raw gene expression data was downloaded from NCBI GEO website, series GSE22366 [21].
Data analysis was performed using BRB-ArrayTools. GSE60791 and GSE22366 data series were imported and analyzed independently. Raw data CEL files were processed with the robust multi-chip average (RMA) algorithm. Fold changes were derived from the geometric mean of intensity values in each treatment class. In the case of GSE60791, P-values were generated between ACY-957 and vehicle treated samples using a paired t test with random variance model applied. In the case of GSE22366, P-values were generated between luciferase control and HDAC1 or HDAC2 knockdown samples using a two-sample t test with random variance model applied.
Duplicate gene symbols were removed by selecting the probe set with the lowest P-value. Next, these 4 gene sets were appended to the Molecular Signatures Database collection of Chemical and Genetic Perturbations. This database contained approximately 2777 gene sets, each containing at least 15 genes and no more than 10000 genes. Finally, log base 2 mRNA data from ACY-957 or vehicle treated cells was loaded into the publically available GSEA software from the Broad Institute and queried against the database of gene sets described above. ACY-957 phenotype was compared against vehicle phenotype by first collapsing the data set to gene symbols based on maximum probe signal and then using a weighted, signal-to-noise metric for ranking genes. Gene set permutations were performed to generate nominal P-values for each gene set.
We interrogated the mechanism through which HDAC1/2 inhibition induces HBG by performing gene expression profiling on ACY-957 or vehicle treated cells in CS1. Because HDAC inhibition prevented cells from fully upregulating GYPA (Fig 4) we isolated RNA at day 5 of differentiation, a time point prior to the observed differentiation block.

[3] = treatment versus control, 1 μM, day 5

Structure (SMILES): Nc1ccc(-c2cccs2)cc1NC(=O)c1ccc2nc(N3CCNCC3)ccc2c1 [ACY-957]
- reduction of the magnitude of HBG mRNA induction in shG2-1 and shG2-2 cells relative to shCtrl cells [1]: 25%
- BCL11A down-regulated ([2]; GeneChip, 1 μM, day 5): 1.3 fold
- GATA2 up-regulated ([2]; GeneChip, 1 μM, day 5): 2.8 fold
- SOX6 down-regulated ([2]; GeneChip, 1 μM, day 5): 2.5 fold
- expression of HBG repressors MYB and KLF1 ([2]; GeneChip, 1 μM, day 5): unaffected
- GATA2 induced (abstract) ([2]; gene expression profiling of erythroid progenitors): greater than 3 fold
- BCL11A Ratio, candidate gene expression by GeneChip [2, 3]: 0.77
- GATA1 Ratio, candidate gene expression by GeneChip [2, 3]: 1.0
- GATA2 Ratio, candidate gene expression by GeneChip [2, 3]: 2.8
- KLF1 Ratio, candidate gene expression by GeneChip [2, 3]: 0.87
- MYB Ratio, candidate gene expression by GeneChip [2, 3]: 1.1
- SOX6 Ratio, candidate gene expression by GeneChip [2, 3]: 0.41

Reference: PMC4830539, “Chemical Inhibition of Histone Deacetylases 1 and 2 Induces Fetal Hemoglobin through Activation of GATA2” (PLoS ONE, 2016)
